The values below come from ChEMBL document CHEMBL1148775, “Synthesis and in vivo evaluation of fluorine-18 and iodine-123 labeled 2beta-carbo(2-fluoroethoxy)-3beta-(4'-((Z)-2-iodoethenyl)phenyl)nortropane as a candidate serotonin transporter imaging agent” (J Med Chem, 2007).

In series [1] the target is Sodium-dependent serotonin transporter (Homo sapiens, UniProt P31645). Nature of the series: Binding affinity to human SERT expressed in HEK293 cells. The series is classed as cell-based.
Series [2] in a line: Partition coefficient, log P at pH 7.4. It counts as physicochemical. Conditions: octanol/water.
Series [3] concerns the target Sodium-dependent dopamine transporter (Homo sapiens, UniProt Q01959). The series can be described thus: Binding affinity to human DAT expressed in HEK293 cells. The series is classed as cell-based.
Series [4] has as its target Sodium-dependent noradrenaline transporter (Homo sapiens, UniProt P23975). Nature of the series: Binding affinity to human NET expressed in HEK293 cells. It counts as cell-based.
Series [5] in a line: Ratio of drug level in putamen to cerebellum in cynomolgus monkey after 235 mins. The settings on record: in vivo. The series is classed as ADME, tissue-based, Macaca fascicularis.
Series [6] in a line: Ratio of drug level in midbrain to cerebellum in cynomolgus monkey after 235 mins. It counts as ADME, tissue-based, Macaca fascicularis. Conditions: in vivo.
A short description of series [7]: Ratio of drug level in caudate to cerebellum in cynomolgus monkey after 235 mins. The series is classed as ADME, tissue-based, Macaca fascicularis. Conditions: in vivo.
Series [8] is described as follows: Ratio of drug level in medulla to cerebellum in cynomolgus monkey after 235 mins. The series is classed as ADME, tissue-based, Macaca fascicularis. Conditions: in vivo.
Series [9] can be described thus: Ratio of drug level in occipital cortex to cerebellum in cynomolgus monkey after 235 mins. It counts as ADME, tissue-based, Macaca fascicularis. Conditions: in vivo.
Series [10] in a line: Ratio of drug level in thalamus to cerebellum in cynomolgus monkey after 235 mins. The series is classed as ADME, tissue-based, Macaca fascicularis. The settings on record: in vivo.
In the next series the test system is Cerebellum. Nature of the series: Biodistribution in iv dosed Sprague-Dawley rat cerebellum after 5 mins. The series is classed as ADME, organism-based. Conditions: in vivo.
Series [11] can be described thus: Biodistribution in iv dosed Sprague-Dawley rat hippocampus in presence of reboxetine at 6 mg/kg after 60 mins. On the set-up: dose 6 mg/kg, route intravenous. The series is classed as ADME, organism-based. Conditions: read-out: Drug uptake.
A short description of series [12]: Biodistribution in iv dosed Sprague-Dawley rat pre frontal cortex in presence of RTI-113 at 6 mg/kg after 60 mins. It counts as ADME, organism-based. On the set-up: dose 6 mg/kg, route intravenous. Conditions: prefrontal cortex, read-out: Drug uptake.
Series [13] can be described thus: Biodistribution in iv dosed Sprague-Dawley rat pons in presence of reboxetine at 6 mg/kg after 60 mins. The series is classed as ADME, organism-based. The settings on record: read-out: Drug uptake. On the set-up: dose 6 mg/kg, route intravenous.
The nature of series [14]: Biodistribution in iv dosed Sprague-Dawley rat pons in presence of citalopram at 6 mg/kg after 60 mins. The series is classed as ADME, organism-based. On the set-up: dose 6 mg/kg, route intravenous. Conditions: read-out: Drug uptake.
Series [15] is described as follows: Biodistribution in iv dosed Sprague-Dawley rat pons after 60 mins. It counts as ADME, organism-based. The settings on record: read-out: Drug uptake.
Series [16] can be described thus: Biodistribution in iv dosed Sprague-Dawley rat cerebellum after 60 mins. The settings on record: read-out: Drug uptake. It counts as ADME, organism-based.
Series [17] can be described thus: Biodistribution in iv dosed Sprague-Dawley rat occipital cortex in presence of RTI-113 at 6 mg/kg after 60 mins. It counts as ADME, organism-based. The settings on record: read-out: Drug uptake. On the set-up: dose 6 mg/kg, route intravenous.
Series [18] in a line: Biodistribution in iv dosed Sprague-Dawley rat hypothalamus after 60 mins. The settings on record: read-out: Drug uptake. It counts as ADME, organism-based.
The nature of series [19]: Biodistribution in iv dosed Sprague-Dawley rat pre frontal cortex after 60 mins. The series is classed as ADME, organism-based. The settings on record: prefrontal cortex, read-out: Drug uptake.
Series [20] is described as follows: Biodistribution in iv dosed Sprague-Dawley rat hypothalamus in presence of reboxetine at 6mg/kg after 60 mins. The series is classed as ADME, organism-based. The settings on record: read-out: Drug uptake.
Series [21] is described as follows: Biodistribution in iv dosed Sprague-Dawley rat striatum in presence of reboxetine at 6 mg/kg after 60 mins. The series is classed as ADME, organism-based. On the set-up: dose 6 mg/kg, route intravenous. Conditions: read-out: Drug uptake.
Series [22] can be described thus: Biodistribution in iv dosed Sprague-Dawley rat occipital cortex in presence of citalopram at 6 mg/kg after 60 mins. The series is classed as ADME, organism-based. The arrangement: dose 6 mg/kg, route intravenous. The settings on record: read-out: Drug uptake.
The nature of series [23]: Biodistribution in iv dosed Sprague-Dawley rat cerebellum in presence of citalopram at 6 mg/kg after 60 mins. The series is classed as ADME, organism-based. The arrangement: dose 6 mg/kg, route intravenous. Conditions: read-out: Drug uptake.
Series [24] can be described thus: Biodistribution in iv dosed Sprague-Dawley rat pre frontal cortex in presence of reboxetine at 6 mg/kg after 60 mins. Conditions: prefrontal cortex, read-out: Drug uptake. The arrangement: dose 6 mg/kg, route intravenous. It counts as ADME, organism-based.
The nature of series [25]: Biodistribution in iv dosed Sprague-Dawley rat striatum in presence of RTI-113 at 6 mg/kg after 60 mins. The series is classed as ADME, organism-based. On the set-up: dose 6 mg/kg, route intravenous. The settings on record: read-out: Drug uptake.
Series [26] can be described thus: Biodistribution in iv dosed Sprague-Dawley rat hippocampus in presence of citalopram at 6 mg/kg after 60 mins. It counts as ADME, organism-based. On the set-up: dose 6 mg/kg, route intravenous. Conditions: read-out: Drug uptake.
Series [27] can be described thus: Biodistribution in iv dosed Sprague-Dawley rat hippocampus after 60 mins. It counts as ADME, organism-based. The settings on record: read-out: Drug uptake.
Series [28] is described as follows: Biodistribution in iv dosed Sprague-Dawley rat hippocampus in presence of RTI-113 at 6 mg/kg after 60 mins. On the set-up: dose 6 mg/kg, route intravenous. The series is classed as ADME, organism-based. The settings on record: read-out: Drug uptake.
Series [29] in a line: Biodistribution in iv dosed Sprague-Dawley rat pons in presence of RTI-113 at 6 mg/kg after 60 mins. It counts as ADME, organism-based. On the set-up: dose 6 mg/kg, route intravenous. The settings on record: read-out: Drug uptake.
Series [30] is described as follows: Biodistribution in iv dosed Sprague-Dawley rat hypothalamus in presence of citalopram at 6 mg/kg after 60 mins. It counts as ADME, organism-based. The arrangement: dose 6 mg/kg, route intravenous. The settings on record: read-out: Drug uptake.
A short description of series [31]: Biodistribution in iv dosed Sprague-Dawley rat striatum in after 60 mins. The series is classed as ADME, organism-based. The settings on record: read-out: Drug uptake.
Series [32] in a line: Biodistribution in iv dosed Sprague-Dawley rat cerebellum in presence of reboxetine at 6 mg/kg after 60 mins. It counts as ADME, organism-based. On the set-up: dose 6 mg/kg, route intravenous. The settings on record: read-out: Drug uptake.
Series [33] is described as follows: Biodistribution in iv dosed Sprague-Dawley rat pre frontal cortex in presence of citalopram at 6 mg/kg after 60 mins. It counts as ADME, organism-based. The settings on record: prefrontal cortex, read-out: Drug uptake. On the set-up: dose 6 mg/kg, route intravenous.
A short description of series [34]: Biodistribution in iv dosed Sprague-Dawley rat occipital cortex in presence of reboxetine at 6 mg/kg after 60 mins. The series is classed as ADME, organism-based. The arrangement: dose 6 mg/kg, route intravenous. The settings on record: read-out: Drug uptake.
Series [35] can be described thus: Biodistribution in iv dosed Sprague-Dawley rat cerebellum in presence of RTI-113 at 6 mg/kg after 60 mins. The series is classed as ADME, organism-based. The settings on record: read-out: Drug uptake. On the set-up: dose 6 mg/kg, route intravenous.
Series [36] is described as follows: Biodistribution in iv dosed Sprague-Dawley rat striatum in presence of citalopram at 6 mg/kg after 60 mins. It counts as ADME, organism-based. On the set-up: dose 6 mg/kg, route intravenous. Conditions: read-out: Drug uptake.
Series [37] in a line: Biodistribution in iv dosed Sprague-Dawley rat occipital cortex after 60 mins. It counts as ADME, organism-based. Conditions: read-out: Drug uptake.
Series [38] can be described thus: Biodistribution in iv dosed Sprague-Dawley rat hypothalamus in presence of RTI-113 at 6 mg/kg after 60 mins. The settings on record: read-out: Drug uptake. The series is classed as ADME, organism-based. The arrangement: dose 6 mg/kg, route intravenous.

By Ki is commonly meant a measure of affinity in units of concentration, obtained from inhibition or displacement. In general, logD refers to the decadic logarithm of the distribution of all forms, ionised or not, between an organic phase and buffer at a given pH.

Sequence of Sodium-dependent serotonin transporter (P31645 whole entry): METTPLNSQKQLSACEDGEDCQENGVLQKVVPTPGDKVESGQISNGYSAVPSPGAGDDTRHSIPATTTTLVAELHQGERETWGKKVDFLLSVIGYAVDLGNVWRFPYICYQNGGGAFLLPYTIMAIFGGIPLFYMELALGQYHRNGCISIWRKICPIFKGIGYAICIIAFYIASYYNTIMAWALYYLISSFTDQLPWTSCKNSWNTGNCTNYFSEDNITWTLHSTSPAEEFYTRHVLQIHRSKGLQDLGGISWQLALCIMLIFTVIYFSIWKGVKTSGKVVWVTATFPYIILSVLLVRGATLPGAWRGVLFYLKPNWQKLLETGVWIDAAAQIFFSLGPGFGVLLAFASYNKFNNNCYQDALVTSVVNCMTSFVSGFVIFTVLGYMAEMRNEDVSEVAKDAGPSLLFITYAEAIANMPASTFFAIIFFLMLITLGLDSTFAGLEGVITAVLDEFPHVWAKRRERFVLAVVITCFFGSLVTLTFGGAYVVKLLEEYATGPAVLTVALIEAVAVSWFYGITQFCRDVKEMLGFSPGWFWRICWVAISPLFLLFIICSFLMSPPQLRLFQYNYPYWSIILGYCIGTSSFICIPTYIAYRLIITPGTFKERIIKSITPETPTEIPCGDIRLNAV
Sequence of Sodium-dependent dopamine transporter (Q01959 whole entry): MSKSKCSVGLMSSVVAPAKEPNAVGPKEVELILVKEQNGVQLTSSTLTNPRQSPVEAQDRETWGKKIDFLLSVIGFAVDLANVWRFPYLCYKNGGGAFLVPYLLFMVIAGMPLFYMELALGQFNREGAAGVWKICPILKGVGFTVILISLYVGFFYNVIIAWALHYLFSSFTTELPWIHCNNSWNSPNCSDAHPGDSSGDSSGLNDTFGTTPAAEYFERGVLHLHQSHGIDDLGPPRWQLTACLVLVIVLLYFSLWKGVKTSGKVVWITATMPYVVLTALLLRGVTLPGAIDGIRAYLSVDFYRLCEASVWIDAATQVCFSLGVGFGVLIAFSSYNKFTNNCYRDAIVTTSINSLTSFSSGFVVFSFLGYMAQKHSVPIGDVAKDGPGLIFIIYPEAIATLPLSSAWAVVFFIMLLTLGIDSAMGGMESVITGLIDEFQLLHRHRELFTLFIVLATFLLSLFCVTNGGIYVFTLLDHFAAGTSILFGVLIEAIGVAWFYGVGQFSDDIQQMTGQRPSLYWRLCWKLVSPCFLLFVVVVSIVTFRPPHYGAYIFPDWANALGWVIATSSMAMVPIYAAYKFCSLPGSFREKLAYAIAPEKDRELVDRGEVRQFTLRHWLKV
Sequence of Sodium-dependent noradrenaline transporter (P23975 whole entry): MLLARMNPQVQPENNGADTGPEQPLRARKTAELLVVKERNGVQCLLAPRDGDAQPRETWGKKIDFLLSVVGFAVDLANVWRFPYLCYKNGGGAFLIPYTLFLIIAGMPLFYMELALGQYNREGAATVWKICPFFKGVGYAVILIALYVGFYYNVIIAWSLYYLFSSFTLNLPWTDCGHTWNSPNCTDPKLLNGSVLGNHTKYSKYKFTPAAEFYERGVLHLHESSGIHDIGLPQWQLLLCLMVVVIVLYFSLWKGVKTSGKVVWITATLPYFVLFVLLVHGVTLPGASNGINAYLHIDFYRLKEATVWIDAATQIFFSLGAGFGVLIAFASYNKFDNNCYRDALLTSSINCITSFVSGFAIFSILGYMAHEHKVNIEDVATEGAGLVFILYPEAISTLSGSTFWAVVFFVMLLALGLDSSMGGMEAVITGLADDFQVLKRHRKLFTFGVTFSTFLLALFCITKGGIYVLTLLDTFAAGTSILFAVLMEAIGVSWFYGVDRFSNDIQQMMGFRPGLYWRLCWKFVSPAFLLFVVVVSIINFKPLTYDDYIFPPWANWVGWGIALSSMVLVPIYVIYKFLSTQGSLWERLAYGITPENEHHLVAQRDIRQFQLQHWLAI

For `O=C(OCCF)C1C2CCC(CC1c1ccc(/C=C\I)cc1)N2` (centres undefined), the values for the Ki in [1], in series [3] and in [4] were 0.08 nM, 13 nM and 28 nM, respectively. The same molecule returned a logD in [2] of 1.8.

Turning to `O=C(OCC[18F])C1C2CCC(CC1c1ccc(/C=C\I)cc1)N2` (centres undefined), the Ratio in [5] was 3.8; in [6] it was 4.4; in [7] it was 2.6; in series [8], 3.3; in series [9] it was 1.6; in series [10], 3.3.

`O=C(OCCF)C1C2CCC(CC1c1ccc(/C=C\[123I])cc1)N2` (centres undefined) returned a Drug uptake in the series on Cerebellum of 0.24 % ID/g. In addition, the tissue uptake at 1 h turned out to be 0.23 %ID/g in series [11]; 0.28 %ID/g in series [12]; 0.2 %ID/g in [13]; 0.14 %ID/g in series [14]; 0.22 %ID/g in [15]; 0.12 %ID/g in series [16]. For the same molecule, the tissue uptake at 1 h turned out to be 0.24 %ID/g in series [17]; 0.27 %ID/g in series [18]; 0.26 %ID/g in [19]; 0.26 %ID/g in series [20]; 0.26 %ID/g in series [21]; 0.16 %ID/g in series [22]. The tissue uptake at 1 h in [23] was found to be 0.11 %ID/g; in [24], 0.28 %ID/g; in series [25], 0.26 %ID/g; in series [26] it was 0.16 %ID/g; in series [27], 0.24 %ID/g; in series [28] it was 0.25 %ID/g. The tissue uptake at 1 h in [29] worked out at 0.22 %ID/g; in series [30], 0.18 %ID/g; in [31] it was 0.25 %ID/g; in series [32], 0.13 %ID/g; in series [33], 0.17 %ID/g; in series [34], 0.23 %ID/g. Also, the tissue uptake at 1 h came out at 0.12 %ID/g in [35], 0.15 %ID/g in series [36], 0.24 %ID/g in [37] and 0.32 %ID/g in series [38].
